{"source": "paper PMC8382845", "about": "“High-content image-based analysis and proteomic profiling identifies Tau phosphorylation inhibitors in a human iPSC-derived glutamatergic neuronal model of tauopathy” (Scientific Reports, 2021)", "biological_target": "T1, GSK3α (Homo sapiens, UniProt P49840)", "T1 construct": "gene GSK3A", "T1 sequence (P49840 2-483)": "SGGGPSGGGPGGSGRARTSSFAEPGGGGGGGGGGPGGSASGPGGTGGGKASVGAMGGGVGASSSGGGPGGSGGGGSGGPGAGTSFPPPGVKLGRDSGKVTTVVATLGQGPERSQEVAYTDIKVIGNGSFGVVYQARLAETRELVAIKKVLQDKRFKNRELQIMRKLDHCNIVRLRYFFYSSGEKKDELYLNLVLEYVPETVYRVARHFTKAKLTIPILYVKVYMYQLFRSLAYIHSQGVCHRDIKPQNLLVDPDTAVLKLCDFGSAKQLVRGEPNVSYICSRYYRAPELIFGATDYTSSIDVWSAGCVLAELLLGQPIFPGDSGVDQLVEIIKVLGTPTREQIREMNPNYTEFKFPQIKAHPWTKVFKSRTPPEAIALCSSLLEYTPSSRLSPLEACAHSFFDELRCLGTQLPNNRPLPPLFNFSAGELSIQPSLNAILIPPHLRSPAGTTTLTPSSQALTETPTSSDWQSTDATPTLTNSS", "data": [{"smiles": "Cc1c[nH]c(-c2cnc(NCCNc3ccc(C#N)cn3)nc2-c2ccc(Cl)cc2Cl)n1", "note": "[CHIR-99021]", "values": [{"measurement": "MIB-MS chemoproteomic competition (loss of kinase binding to inhibitor beads) af", "value": "This effect of CHIR-99021 was similar between the two GSK isoforms, GSK3α and GSK3β (Fig. 5C) in both NPC and neurons"}]}]}
